Test results as given in patent US20250129099A1, “INHIBITOR OF APOPTOSIS (IAP) PROTEIN ANTAGONISTS” (Sanford Burnham Prebys Medical Discovery Institute, priority 2021, published 2025).
pIC50: −log10 of the molar value. Where a name gives a salt, the structure may show the parent alone. Read-outs that look alike come from different tables or passages of the source.

Key:
SKOV-3 cancer cell lines = test: Cell viability of SKOV-3 cancer cell lines after treatment with test compound; format: cell-based
Procedure: […] Cell viability is evaluated following treatment with a compound as disclosed in Table B. Viability of cancer cells following treatment is indicated according to the following legend:

OVCAR-4 = test: Cell viability of OVCAR-4 cells after treatment with test compound; format: cell-based
[1] = Homo sapiens, SK-OV-3, SKOV-3 cancer cells

Row | pIC50 (SKOV-3 cancer cell lines; [1]) | pIC50 (OVCAR-4; Homo sapiens) | Structure (SMILES) | pIC50 (SKOV-3 cancer cell lines; SKOV-3 cancer cells) | pIC50 (OVCAR-4)
1 | 8.00 to 9.00 | 7.00 to 8.00 | CN[C@@H](C)C(=O)N[C@H]1CCS[C@H]2CC3(CCCC3)[C@@H](C(=O)N[C@@H]3CCOc4ccccc43)N2C1=O [Compound 5, (4′S,7′S,9a'S)-4′-((S)-2-(chloro(methyl)-15-azaneyl)propanamido)-N-(chroman-4-yl)-5′-oxohexahydro-7′H-spiro[cyclopentane-1,8′-pyrrolo[2,1-b][1,3]thiazepine]-7′-carboxamide] |  | 
2 | 8.00 to 9.00 | 6.00 to 7.00 | CC[C@H](NC)C(=O)N[C@H]1CCO[C@H]2CC3(CCCC3)[C@@H](C(=O)N[C@@H]3CCOc4ccccc43)N2C1=O [Compound 10, (4′S,7′S,9a'S)-4′-((S)-2-(chloro(methyl)-16-azaneyl)butanamido)-N-(chroman-4-yl)-5′-oxohexahydro-7′H-spiro[cyclopentane-1,8′-pyrrolo[2,1-b][1,3]oxazepine]-7′-carboxamide] |  | 
3 | 8.00 to 9.00 | 7.00 to 8.00 | CN[C@@H](C)C(=O)N[C@H]1CCS[C@H]2CC3(CC=CC3)[C@@H](C(=O)N[C@@H]3CCOc4ccccc43)N2C1=O [Compound 3, (4′S,7′S,9a'S)-4′-((S)-2-(chloro(methyl)-15-azaneyl)propanamido)-N—((R)-chroman-4-yl)-5′-oxo-2′,3′,4′,5′,9′,9a′-hexahydro-7′H-spiro[cyclopentane-1,8′-pyrrolo[2,1-b][1,3]thiazepin]-3-ene-7′-carboxamide] |  | 
4 | 8.00 to 9.00 | 6.00 to 7.00 | CN[C@@H](C)C(=O)N[C@H]1CCS[C@H]2CC3(CCCC3)[C@@H](C(=O)N[C@@H]3CCSc4ccccc43)N2C1=O [Compound 6, (4′S,7′S,9a'S)-4′-((S)-2-(chloro(methyl)-15-azaneyl)propanamido)-5′-oxo-N—((R)-thiochroman-4-yl)hexahydro-7′H-spiro[cyclopentane-1,8′-pyrrolo[2,1-b][1,3]thiazepine]-7′-carboxamide] |  | 
5 | 8.00 to 9.00 | 6.00 to 7.00 | CC[C@H](NC)C(=O)N[C@H]1CCO[C@H]2CC3(CC=CC3)[C@@H](C(=O)N[C@@H]3CCOc4ccccc43)N2C1=O [Compound 13, (4′S,7′S,9a'S)-4′-((S)-2-(chloro(methyl)-16-azaneyl)butanamido)-N—((S)-chroman-4-yl)-5′-oxo-2′,3′,4′,5′,9′,9a′-hexahydro-7′H-spiro[cyclopentane-1,8′-pyrrolo[2,1-b][1,3]oxazepin]-3-ene-7′-carboxamide] |  | 
6 | 8.00 to 9.00 | 6.00 to 7.00 | CN[C@@H](C)C(=O)N[C@H]1CCO[C@H]2CC3(CCCC3)[C@@H](C(=O)N[C@@H]3CCOc4ccccc43)N2C1=O [Compound 9, (4′S,7′S,9a'S)-4′-((S)-2-(chloro(methyl)-16-azaneyl)propanamido)-N-(chroman-4-yl)-5′-oxohexahydro-7′H-spiro[cyclopentane-1,8′-pyrrolo[2,1-b][1,3]oxazepine]-7′-carboxamide] |  | 

Second part, the molecule before the results:

Row | Structure (SMILES) | pIC50 (SKOV-3 cancer cell lines; [1]) | pIC50 (OVCAR-4; Homo sapiens) | pIC50 (SKOV-3 cancer cell lines; SKOV-3 cancer cells) | pIC50 (OVCAR-4)
7 | CN[C@@H](C)NC(=O)N[C@H]1CCSC2CC(C)(C)[C@@H](C(=O)N[C@@H]3CCOc4ccccc43)N2C1=O (stereo partly drawn) [Compound 7, (4S,7S)—N—((R)-chroman-4-yl)-8,8-dimethyl-4-(3-((R)-1-(methylamino)ethyl)ureido)-5-oxooctahydropyrrolo[2,1-b][1,3]thiazepine-7-carboxamide hydrochloride] | < 6.00 | < 6.00 |  | 
8 | CN[C@@H](C)C(=O)N[C@H]1CCS[C@H]2CC(C)(C)[C@@H](C(=O)N[C@@H]3CCSc4ccccc43)N2C1=O [Compound 2, (4S,7S)-8,8-dimethyl-4-((S)-2-(methylamino)propanamido)-5-oxo-N—((R)-thiochroman-4-yl)octahydropyrrolo[2,1-b][1,3]thiazepine-7-carboxamide hydrochloride] | 8.00 to 9.00 | 6.00 to 7.00 |  | 
9 | CN[C@@H](C)C(=O)N[C@H]1CCS[C@H]2CC3(CC=CC3)[C@@H](C(=O)N[C@@H]3CCSc4ccccc43)N2C1=O [Compound 4, (4′S,7′S,9a'S)-4′-((S)-2-(chloro(methyl)-15-azaneyl)propanamido)-5′-oxo-N—((R)-thiochroman-4-yl)-2′,3′,4′,5′,9′,9a′-hexahydro-7′H-spiro[cyclopentane-1,8′-pyrrolo[2,1-b][1,3]thiazepin]-3-ene-7′-carboxamide] | 8.00 to 9.00 | 6.00 to 7.00 |  | 
10 | CN[C@@H](C)C(=O)N[C@H]1CCS[C@H]2CC3(CC=CC3)[C@@H](C(=O)N[C@@H]3CCCc4ccccc43)N2C1=O [Compound 11, (4′S,7′S,9a'S)-4′-((S)-2-(chloro(methyl)-15-azaneyl)propanamido)-5′-oxo-N-(1,2,3,4-tetrahydronaphthalen-1-yl)-2′,3′,4′,5′,9′,9a′-hexahydro-7′H-spiro[cyclopentane-1,8′-pyrrolo[2,1-b][1,3]thiazepin]-3-ene-7′-carboxamide] | 8.00 to 9.00 | 7.00 to 8.00 |  | 
11 | CC[C@H](NC)C(=O)N[C@H]1CCSC2CC(C)(C)[C@@H](C(=O)N[C@@H]3CCOc4ccccc43)N2C1=O (stereo partly drawn) [Compound 8, (4S,7S)—N—((R)-chroman-4-yl)-8,8-dimethyl-4-((S)-2-(methylamino)butanamido)-5-oxooctahydropyrrolo[2,1-b][1,3]thiazepine-7-carboxamide hydrochloride] | 8.00 to 9.00 | 7.00 to 8.00 |  | 
12 | CN[C@@H](C)C(=O)N[C@H]1CCS[C@H]2CC(C)(C)[C@@H](C(=O)N[C@@H]3CCOc4ccccc43)N2C1=O [Compound 1, (4S,7S)—N—((R)-chroman-4-yl)-8,8-dimethyl-4-((S)-2-(methylamino)propanamido)-5-oxooctahydropyrrolo[2,1-b][1,3]thiazepine-7-carboxamide hydrochloride] | 8.00 to 9.00 | 7.00 to 8.00 |  | 
13 | CN[C@@H](C)C(=O)N[C@H]1CCO[C@H]2CC3(CC=CC3)[C@@H](C(=O)N[C@H]3CCOc4ccccc43)N2C1=O [Compound 12, (4′S,7′S,9a'S)-4′-((S)-2-(chloro(methyl)-15-azaneyl)propanamido)-N—((S)-chroman-4-yl)-5′-oxo-2′,3′,4′,5′,9′,9a′-hexahydro-7′H-spiro[cyclopentane-1,8′-pyrrolo[2,1-b][1,3]oxazepin]-3-ene-7′-carboxamide] |  |  | 6.00 to 7.00 | < 6.00
